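Results reflect a 48-hour exposure of cells in 96-well plates to compound at five concentrations. GI50 = concentration required for 50% inhibition of growth. TGI: total growth inhibition.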
Key:
Assay in all cases: NCI anticancer screen, dose series, 48 h
786-0 renal = test system: 786-0 renal
A498 renal = test system: A498 renal
HCT-116 colon = test system: HCT-116 colon
HOP-92 NSCLC = test system: HOP-92 NSCLC
HT29 colon = test system: HT29 colon
MDA-MB-231 breast = test system: MDA-MB-231 breast
OVCAR-5 ovarian = test system: OVCAR-5 ovarian
OVCAR-8 ovarian = test system: OVCAR-8 ovarian
PC-3 prostate = test system: PC-3 prostate
SF-295 CNS = test system: SF-295 CNS

| SMILES | GI50 (786-0 renal) | TGI (786-0 renal) | GI50 (A498 renal) | TGI (A498 renal) | GI50 (HCT-116 colon) | TGI (HCT-116 colon) | GI50 (HOP-92 NSCLC) | TGI (HOP-92 NSCLC) | GI50 (HT29 colon) | TGI (HT29 colon) | GI50 (MDA-MB-231 breast) | TGI (MDA-MB-231 breast) | GI50 (OVCAR-5 ovarian) | TGI (OVCAR-5 ovarian) | GI50 (OVCAR-8 ovarian) | TGI (OVCAR-8 ovarian) | GI50 (PC-3 prostate) | TGI (PC-3 prostate) | GI50 (SF-295 CNS) | TGI (SF-295 CNS) |
| --- | --- | --- | --- | --- | --- | --- | --- | --- | --- | --- | --- | --- | --- | --- | --- | --- | --- | --- | --- | --- |
| COC(=O)C1=CN(CC2=CC(=O)C(C)=CC2=O)C=C(C(=O)OC)C1c1cccc(OC)c1 | > 22.5 µM | > 41 µM | 18.6 µM | 34.6 µM | 3.63 µM | 11.1 µM | 10.6 µM | 33.8 µM | 37 µM | > 100 µM | 13.4 µM | 31.2 µM | 19 µM | 42 µM | > 51.9 µM | > 100 µM | 8 µM | 29.9 µM | 10.3 µM | 26.4 µM |
| CCN(Cc1ccc(F)cc1)c1ccc(CO)c(Br)c1 | 5.85 µM | 31.1 µM | 0.0272 µM | 0.136 µM | 0.046 µM | 12.6 µM | 0.173 µM | 6.23 µM | 2.4 µM | 19.4 µM | 14.2 µM | 36.5 µM | 0.0525 µM | 0.225 µM | 9.64 µM | 47.1 µM | 12.8 µM | 36.2 µM | 0.148 µM | 2.3 µM |
| COC12C(COC(N)=O)C3=C(C(=O)C(C)=C(N)C3=O)N1CC1C2N1C (stereo not given) |  | 68.5 µM |  | 21.2 µM |  | 32.1 µM |  | 36.4 µM |  | 43.2 µM |  | 115 µM |  | 63.1 µM |  | 53.1 µM |  | 61.6 µM |  | 18.1 µM |

From PubChem BioAssay (NCI)
